Results: ChEMBL document CHEMBL4376828, “Small-Molecule Inhibitors of Necroptosis: Current Status and Perspectives” (J Med Chem, 2020)
Values belong to the compound of their own block, whether it stands above or below them.

Assays:
[1] = target: T1, Receptor-interacting serine/threonine-protein kinase 1 (Homo sapiens, UniProt Q13546); experiment: Inhibition of human RIPK1 by ADP-Glo assay
T1 sequence (Q13546 whole entry): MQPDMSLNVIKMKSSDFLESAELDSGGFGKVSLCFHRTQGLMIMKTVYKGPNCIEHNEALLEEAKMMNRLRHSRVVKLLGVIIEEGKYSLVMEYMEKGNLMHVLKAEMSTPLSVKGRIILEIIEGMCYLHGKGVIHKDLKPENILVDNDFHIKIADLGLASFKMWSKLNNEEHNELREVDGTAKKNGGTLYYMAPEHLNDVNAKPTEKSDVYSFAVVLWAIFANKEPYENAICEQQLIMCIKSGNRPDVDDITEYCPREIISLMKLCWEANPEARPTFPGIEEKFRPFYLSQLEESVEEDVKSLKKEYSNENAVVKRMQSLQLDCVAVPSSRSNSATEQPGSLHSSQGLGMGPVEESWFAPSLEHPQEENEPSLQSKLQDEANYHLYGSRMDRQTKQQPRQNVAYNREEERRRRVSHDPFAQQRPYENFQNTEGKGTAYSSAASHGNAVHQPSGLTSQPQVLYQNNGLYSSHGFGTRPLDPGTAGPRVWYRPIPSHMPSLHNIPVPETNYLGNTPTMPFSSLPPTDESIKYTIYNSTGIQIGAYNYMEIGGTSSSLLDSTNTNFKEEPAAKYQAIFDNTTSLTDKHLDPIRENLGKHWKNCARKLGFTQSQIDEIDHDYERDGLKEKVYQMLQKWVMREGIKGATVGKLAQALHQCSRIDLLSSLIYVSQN

[2] = target: T1, Receptor-interacting serine/threonine-protein kinase 1; experiment: Inhibition of GSK657 binding to human RIPK1 (1 to 328) by fluorescence Polarization assay
HT-29 = experiment: Anti-neprotic activity in human HT-29 cells assessed as reduction in TSZ-induced necroptosis incubated for 24 hrs by cell titer glo-based luminescence assay; format: functional; settings: HT-29, 24 h
[3] = target: T2, Receptor-interacting serine/threonine-protein kinase 1 (Homo sapiens) (UniProt Q13546)
T2 sequence (whole entry): T1 sequence (Q13546 whole entry)

Jurkat = experiment: Anti-neprotic activity in human Jurkat cells FADD defient assessed as reduction in TNFalpha-induced necroptosis preincubated for 30 mins followed by addition of TNFalpha-stimulation and further incubated for over night by Cell Titer Glo assay; format: functional, cell-based
Mus musculus [4] = experiment: Antiinflammatory Activity in C57BL/6 mouse TNFalpha-induced mouse model of SIRS assessed as reduction in TNF-induced body temperature at 0.124 mg/kg, iv pretreated for 15 mins followed by TNFalpha-stimulation and measured up to 4 days by thermometric method relative to control; format: functional; design: scale not given: the % may be the effect or the level left
MEF = experiment: Anti-neprotic activity in mouse MEF cells assessed as reduction in TNF-induced necroptosis and measured every 1 hr in presence of z-VAD by SYTOX Green dye based fluorescence assay; format: functional, cell-based
[5] = target: T1, Receptor-interacting serine/threonine-protein kinase 1; experiment: Inhibition of recombinant human GST-tagged RIPK1 (1 to 479 residues) incubated for 4 hrs by ADP-Glo assay
L929 = experiment: Anti-neprotic activity in mouse L929 cells assessed as reduction in TNF-induced necroptosis and measured every 1 hr by SYTOX Green dye based fluorescence assay; format: functional, cell-based; settings: L929, 1 h
Fibroblast = experiment: Anti-neprotic activity in mouse fibroblasts cells; format: functional, cell-based
[6] = target: T3, Mixed lineage kinase domain-like protein (Homo sapiens) (UniProt Q8NB16)
T3 sequence (whole entry): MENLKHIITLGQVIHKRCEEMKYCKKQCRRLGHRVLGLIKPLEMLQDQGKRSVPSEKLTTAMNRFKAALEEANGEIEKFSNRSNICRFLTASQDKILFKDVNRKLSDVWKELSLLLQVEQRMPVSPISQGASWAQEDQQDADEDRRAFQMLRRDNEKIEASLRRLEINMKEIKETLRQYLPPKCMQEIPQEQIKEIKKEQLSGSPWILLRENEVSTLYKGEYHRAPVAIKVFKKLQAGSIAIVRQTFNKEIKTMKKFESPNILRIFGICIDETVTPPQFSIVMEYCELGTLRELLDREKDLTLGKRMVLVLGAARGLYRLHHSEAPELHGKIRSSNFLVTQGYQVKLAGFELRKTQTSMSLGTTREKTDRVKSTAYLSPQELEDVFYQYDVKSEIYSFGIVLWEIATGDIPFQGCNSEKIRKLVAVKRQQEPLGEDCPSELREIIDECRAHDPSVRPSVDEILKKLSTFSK

[7] = target: T4, Receptor-interacting serine/threonine-protein kinase 3 (Homo sapiens, UniProt Q9Y572); experiment: Inhibition of human RIPK3 using MBP as substrate by [gamma33-ATP] based radiometric assay
[8] = target: T5, Dual serine/threonine and tyrosine protein kinase (Homo sapiens, UniProt Q6XUX3); experiment: Inhibition of human RIPK5 using MBP as substrate by [gamma33-ATP] based radiometric assay
T5 sequence (Q6XUX3 whole entry): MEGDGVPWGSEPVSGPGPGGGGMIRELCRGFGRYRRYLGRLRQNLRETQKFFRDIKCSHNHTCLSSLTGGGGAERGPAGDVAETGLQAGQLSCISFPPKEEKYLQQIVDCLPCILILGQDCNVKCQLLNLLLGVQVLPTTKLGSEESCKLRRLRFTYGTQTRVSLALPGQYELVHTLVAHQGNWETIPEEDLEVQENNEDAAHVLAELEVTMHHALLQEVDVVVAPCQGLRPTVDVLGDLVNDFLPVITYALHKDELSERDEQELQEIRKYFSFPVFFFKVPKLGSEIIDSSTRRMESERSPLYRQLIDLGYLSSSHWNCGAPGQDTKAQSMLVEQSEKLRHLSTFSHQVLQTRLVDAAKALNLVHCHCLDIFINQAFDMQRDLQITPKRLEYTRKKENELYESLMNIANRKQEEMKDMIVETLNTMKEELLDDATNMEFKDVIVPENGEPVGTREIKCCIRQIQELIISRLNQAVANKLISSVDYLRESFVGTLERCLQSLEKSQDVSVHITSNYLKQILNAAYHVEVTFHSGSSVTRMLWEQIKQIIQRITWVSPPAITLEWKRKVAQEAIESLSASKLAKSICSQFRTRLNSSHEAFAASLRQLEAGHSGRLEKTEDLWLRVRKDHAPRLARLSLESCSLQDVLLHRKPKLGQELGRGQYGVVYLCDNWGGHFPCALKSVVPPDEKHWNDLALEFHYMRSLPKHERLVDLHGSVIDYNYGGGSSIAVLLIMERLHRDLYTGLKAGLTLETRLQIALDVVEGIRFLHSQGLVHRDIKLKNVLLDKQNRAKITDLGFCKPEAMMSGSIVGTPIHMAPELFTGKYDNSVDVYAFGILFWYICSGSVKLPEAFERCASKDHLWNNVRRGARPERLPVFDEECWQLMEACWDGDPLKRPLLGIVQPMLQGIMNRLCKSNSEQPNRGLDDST

[9] = target: T4, Receptor-interacting serine/threonine-protein kinase 3; experiment: Inhibition of human full length N-terminal GST-tagged RIPK3 expressed in baculovirus infected sf9 insect cells assessed as reduction in MBP phosphorylation using MBP as substrate by kinase-Glo luminescence assay
[10] = target: T6, Receptor-interacting serine/threonine-protein kinase 2 (Homo sapiens, UniProt O43353); experiment: Inhibition of human RIPK2 using MBP as substrate by [gamma33-ATP] based radiometric assay
[11] = target: T1, Receptor-interacting serine/threonine-protein kinase 1; experiment: Inhibition of human RIPK1 using MBP as substrate by [gamma33-ATP] based radiometric assay
Mus musculus [12] = experiment: Antiinflammatory activity in TNF-induced mouse model of SIRS assessed as reduction in TNF-induced body temperature at 5 mg/kg, po and measured after 2 to 4 hrs by infrared ear Thermometric method relative to control; format: functional; design: scale not given: the % may be the effect or the level left
[13] = target: T7, Receptor-interacting serine/threonine-protein kinase 1 (Mus musculus, UniProt Q60855); experiment: Inhibition of mouse RIPK1; settings: read-out: Ki(app)
T7 sequence (Q60855 whole entry): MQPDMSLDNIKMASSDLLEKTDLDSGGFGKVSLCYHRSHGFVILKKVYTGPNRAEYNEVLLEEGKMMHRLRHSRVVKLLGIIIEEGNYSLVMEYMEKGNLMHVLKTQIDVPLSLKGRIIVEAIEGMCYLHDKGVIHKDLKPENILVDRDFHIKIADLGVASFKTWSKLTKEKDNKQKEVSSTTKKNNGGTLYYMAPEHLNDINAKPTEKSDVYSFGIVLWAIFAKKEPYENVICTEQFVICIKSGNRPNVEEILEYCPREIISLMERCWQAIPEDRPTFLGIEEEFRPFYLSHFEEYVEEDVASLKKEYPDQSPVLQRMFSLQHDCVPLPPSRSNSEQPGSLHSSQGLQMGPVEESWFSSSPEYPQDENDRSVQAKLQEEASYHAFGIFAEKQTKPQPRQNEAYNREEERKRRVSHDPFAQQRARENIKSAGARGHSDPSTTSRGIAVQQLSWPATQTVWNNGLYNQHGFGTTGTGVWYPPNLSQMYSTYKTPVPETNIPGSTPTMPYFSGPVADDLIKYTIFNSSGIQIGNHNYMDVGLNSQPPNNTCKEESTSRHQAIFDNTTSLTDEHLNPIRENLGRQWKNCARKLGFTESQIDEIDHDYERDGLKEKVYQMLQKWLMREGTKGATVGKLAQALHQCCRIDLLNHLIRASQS

Mus musculus [14] = experiment: Antiinflammatory Activity in C57BL/6 mouse TNFalpha-induced mouse model of SIRS assessed as reduction in TNF-induced body temperature at 0.226 mg/kg, iv pretreated for 15 mins followed by TNFalpha-stimulation and measured up to 4 days by thermometric method relative to control; format: functional; design: scale not given: the % may be the effect or the level left
[15] = target: T8, Indoleamine 2,3-dioxygenase 1 (Homo sapiens, UniProt P14902); experiment: Inhibition of recombinant human IDO using L-Trp as substrate incubated for 60 mins
[16] = target: T8, Indoleamine 2,3-dioxygenase 1; experiment: Inhibition of IDO (unknown origin)
[17] = target: T4, Receptor-interacting serine/threonine-protein kinase 3; experiment: Inhibition of recombinant RIPK3 (unknown origin) using MBP as substrate preincubated for 15 mins followed by addition of MBP and measured after 120 min ADP-Glo kinase assay
Mus musculus [18] = experiment: Antiinflammatory Activity in C57BL/6 mouse TNFalpha-induced mouse model of SIRS at 30 mg/kg, ip pretreated for 15 mins followed by TNFalpha-stimulation and measured after 72 hrs relative to control; format: functional
[19] = target: T6, Receptor-interacting serine/threonine-protein kinase 2; experiment: Inhibition of recombinant human His-tagged RIPK2 (8 to 317 residues) incubated for 1 hr by ADP-Glo assay
[20] = target: Tyrosine-protein kinase ABL1 (Homo sapiens, UniProt P00519); experiment: Inhibition of Abl (unknown origin) incubated for 1 hr by ADP-Glo assay
[21] = target: T1, Receptor-interacting serine/threonine-protein kinase 1; experiment: Inhibition of RIPK1 (unknown origin)

T4 sequence (Q9Y572 whole entry): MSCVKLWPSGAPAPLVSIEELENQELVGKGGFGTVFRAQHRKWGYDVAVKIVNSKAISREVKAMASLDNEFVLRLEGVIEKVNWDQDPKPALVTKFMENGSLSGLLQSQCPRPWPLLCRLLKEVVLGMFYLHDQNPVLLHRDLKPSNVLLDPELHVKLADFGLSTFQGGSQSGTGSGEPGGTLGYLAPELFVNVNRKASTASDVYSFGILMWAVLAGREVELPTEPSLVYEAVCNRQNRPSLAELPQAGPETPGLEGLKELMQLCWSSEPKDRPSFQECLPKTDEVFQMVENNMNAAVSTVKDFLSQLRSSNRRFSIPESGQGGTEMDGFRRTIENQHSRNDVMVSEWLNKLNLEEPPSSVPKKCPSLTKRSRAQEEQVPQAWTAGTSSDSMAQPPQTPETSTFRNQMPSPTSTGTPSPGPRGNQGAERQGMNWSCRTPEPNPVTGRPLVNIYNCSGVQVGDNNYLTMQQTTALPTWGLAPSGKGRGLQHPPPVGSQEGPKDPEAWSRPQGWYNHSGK
T8 sequence (P14902 whole entry): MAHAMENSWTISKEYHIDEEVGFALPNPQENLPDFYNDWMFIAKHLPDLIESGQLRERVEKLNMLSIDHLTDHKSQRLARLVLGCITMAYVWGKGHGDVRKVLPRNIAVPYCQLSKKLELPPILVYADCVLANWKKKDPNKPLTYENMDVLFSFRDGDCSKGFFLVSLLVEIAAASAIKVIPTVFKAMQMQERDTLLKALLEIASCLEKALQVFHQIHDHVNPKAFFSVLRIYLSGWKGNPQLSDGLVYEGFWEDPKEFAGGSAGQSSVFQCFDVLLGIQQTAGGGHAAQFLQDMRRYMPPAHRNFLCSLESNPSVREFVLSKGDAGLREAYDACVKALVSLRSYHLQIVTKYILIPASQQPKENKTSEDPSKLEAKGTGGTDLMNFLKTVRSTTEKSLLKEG
T6 sequence (O43353 whole entry): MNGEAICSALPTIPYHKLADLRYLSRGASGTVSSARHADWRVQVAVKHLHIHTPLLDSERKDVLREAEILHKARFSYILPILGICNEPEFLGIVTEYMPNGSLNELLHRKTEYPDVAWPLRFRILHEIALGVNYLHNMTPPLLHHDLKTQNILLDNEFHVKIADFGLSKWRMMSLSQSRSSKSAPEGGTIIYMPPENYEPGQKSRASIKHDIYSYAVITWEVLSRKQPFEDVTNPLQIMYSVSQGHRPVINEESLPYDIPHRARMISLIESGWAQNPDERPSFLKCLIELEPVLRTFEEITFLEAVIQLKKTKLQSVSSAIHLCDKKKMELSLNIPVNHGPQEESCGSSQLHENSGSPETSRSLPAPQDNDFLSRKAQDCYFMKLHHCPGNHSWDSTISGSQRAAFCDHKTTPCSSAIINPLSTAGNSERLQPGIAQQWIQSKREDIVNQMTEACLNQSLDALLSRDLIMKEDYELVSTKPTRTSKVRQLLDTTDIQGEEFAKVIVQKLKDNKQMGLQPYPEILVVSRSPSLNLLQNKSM
Sequence of Tyrosine-protein kinase ABL1 (P00519 whole entry): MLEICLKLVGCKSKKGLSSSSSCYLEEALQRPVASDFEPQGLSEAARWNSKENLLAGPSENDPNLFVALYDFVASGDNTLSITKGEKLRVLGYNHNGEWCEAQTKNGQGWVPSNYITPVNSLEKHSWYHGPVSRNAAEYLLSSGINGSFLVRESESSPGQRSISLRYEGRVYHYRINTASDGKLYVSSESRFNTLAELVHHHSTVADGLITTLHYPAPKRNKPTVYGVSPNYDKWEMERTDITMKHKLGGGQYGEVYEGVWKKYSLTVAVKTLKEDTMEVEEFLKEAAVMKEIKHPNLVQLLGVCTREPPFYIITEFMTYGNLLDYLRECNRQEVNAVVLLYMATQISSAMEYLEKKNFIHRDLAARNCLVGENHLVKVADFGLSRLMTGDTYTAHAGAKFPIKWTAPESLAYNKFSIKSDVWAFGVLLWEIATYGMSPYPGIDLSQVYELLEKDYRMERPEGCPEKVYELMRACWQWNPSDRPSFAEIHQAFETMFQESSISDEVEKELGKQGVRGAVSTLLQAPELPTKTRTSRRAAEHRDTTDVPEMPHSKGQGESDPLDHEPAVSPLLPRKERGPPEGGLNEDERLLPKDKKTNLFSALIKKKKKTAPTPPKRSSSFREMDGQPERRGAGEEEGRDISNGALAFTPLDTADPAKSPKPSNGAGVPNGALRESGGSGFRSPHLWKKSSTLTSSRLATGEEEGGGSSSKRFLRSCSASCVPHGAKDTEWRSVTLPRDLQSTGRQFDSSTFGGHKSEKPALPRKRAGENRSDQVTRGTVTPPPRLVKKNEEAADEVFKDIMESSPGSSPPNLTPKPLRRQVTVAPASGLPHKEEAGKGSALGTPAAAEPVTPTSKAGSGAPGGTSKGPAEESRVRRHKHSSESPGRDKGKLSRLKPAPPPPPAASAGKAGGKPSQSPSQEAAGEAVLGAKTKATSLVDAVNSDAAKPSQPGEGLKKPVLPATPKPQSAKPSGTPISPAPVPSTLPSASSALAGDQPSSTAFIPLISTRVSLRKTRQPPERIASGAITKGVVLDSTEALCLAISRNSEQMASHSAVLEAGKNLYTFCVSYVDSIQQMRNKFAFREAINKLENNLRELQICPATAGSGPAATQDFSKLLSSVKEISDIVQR

SMILES: COc1nccnc1NS(=O)(=O)c1ccc(NC(=O)/C=C/c2ccc([N+](=O)[O-])s2)cc1
IC50 (HT-29): < 200 nM

SMILES: Nc1nccnc1C(=O)O[C@@H](C(=O)Nc1ccc(F)cc1)c1ccccc1
ΔTm [3]: -0.15 °C
IC50 (Jurkat): > 40000 nM

SMILES: CN(c1ccc(NC(=O)Nc2ccc(OC(F)(F)F)cc2)cc1)c1ccnc(Nc2cccc(S(N)(=O)=O)c2)n1 [GW806742X]
IC50 (Fibroblast): < 50 nM

SMILES: Cn1cc(-c2ccc3c(c2)CCN3C(=O)Cc2cccc(C(F)(F)F)c2)c2c(N)ncnc21
Activity (Mus musculus [14]): 100%
IC50 (L929): 0.4 nM

SMILES: Cn1c(=O)c2c(nc(S(C)(=O)=O)n2C)n(C)c1=O
IC50 (HT-29): 390 nM

SMILES: CN1C(=O)C(Cc2c[nH]c3ccccc23)NC1=S (centres undefined) [NECROSTATIN]
IC50 [15]: 110 nM
IC50 [16]: 100000 nM

SMILES: CNC(=O)c1ccc2c(c1)ncn2-c1ccc(CC(=O)OC(C)(C)C)cc1
IC50 [1]: 0.3 nM
IC50 [2]: 0.9 nM

SMILES: Cn1c(=O)c2c(nc(S(C)(=O)=O)n2C)n(CC#Cc2cccc(O)c2)c1=O
IC50 (HT-29): 2 nM

SMILES: Cc1ccc(CCCCN2C(=O)N[C@H](Cc3c[nH]c4c(Cl)cccc34)C2=O)cc1C#Cc1cnc2cccnn12
IC50 [19]: 1190 nM
IC50 [20]: > 1000 nM

SMILES: O=C1NC(=S)NC1Cc1c[nH]c2ccccc12 (centres undefined)
IC50 [15]: 110 nM

Further lines, with some results ahead:

IC50 [1]: 6.5 nM
IC50 [2]: 8.6 nM
SMILES: Cc1cc(-c2cnc(N)c3c(-c4ccc5scnc5c4)csc23)n(C)n1

IC50 [5]: 69 nM
SMILES: Cn1cc(-c2ccc3c(c2F)CCN3C(=O)Cc2cccc(C(F)(F)F)n2)c2c(N)ncnc21
Activity (Mus musculus [4]): 100%
IC50 (MEF): 4 nM
IC50 (L929): 0.1 nM

ΔTm [3]: 0.75 °C
ΔTm [6]: 5.63 °C
SMILES: C[C@@H](Oc1cc(-c2cnn(C3CCNCC3)c2)cnc1N)c1c(Cl)ccc(F)c1Cl [CRIZOTINIB]
IC50 (Jurkat): > 40000 nM

IC50 [7]: 2 nM
IC50 [8]: 29400 nM
IC50 [9]: 250 nM
IC50 [10]: 77 nM
IC50 [11]: 53200 nM
SMILES: CC(C)(C)c1nc(-c2cccc(NS(=O)(=O)c3c(F)cccc3F)c2F)c(-c2ccnc(N)n2)s1 [DABRAFENIB]

Ki [13]: 189 nM
SMILES: COc1ccc2c(c1)CC[C@H](NC(=O)c1nc3n(n1)[C@H](c1ccccc1)CC3)C(=O)N2C
Activity (Mus musculus [12]): 100%

IC50 [17]: > 1000 nM
SMILES: CC(=O)Nc1nc2ccc(-c3cnc(Cl)c(CC(=O)Cc4ccccc4)c3)cc2s1
Activity (Mus musculus [18]): 90%

IC50 [21]: 73.6 nM
SMILES: Cc1ccc(O)cc1Nc1ccnc2cc(-c3ccccn3)ccc12
